{"source": "patent US9012435B2", "about": "“Glucocorticoids attached to nitrate esters via an aromatic linker in position 21 and their use in ophthalmology” (Nicox S.A., priority 2008, dated 2015)", "key": {"[1]": {"tested_on": "Brown Norway rats", "assay": "Steroid-induced intraocular pressure (IOP) elevation in rats after intravitreal injection", "settings": "39.1 μg/eye (25 μg/eye equivalent) intravitreal", "from_the_text": "Male Brown Norway rats (250-275 g; Charles River laboratory) were acclimated for a week before IOP measurements. Baseline IOP measurements with Tonolab Tonometer (Tiolat Inc) were done in conscious rats (Pease, M. E., et al J. Glaucoma, 15:512-519, 2006) before intravitreal injection of test compounds. Then the rats were anesthetized with isoflurane inhalation and a drop of 0.5% tetracaine was topically applied on the eyes. Pupils were dilated with 1% topical cyclopentolate hydrochloride and 2.5% phenylephrine HCl to see the needle to aim the intravitreal injection of test compounds. […] For example, to compare to fluocinolone acetonide at both 25 and 50 μg/eye, compound (1) was dosed at 42.4 and 84.7 μg/eye, respectively. The des-nitro analog of compound (1) was dosed at 39.1 μg/eye (equivalent for 25 μg FC). Control animals received vehicle.\nFive measurements were averaged for each time point. IOP measurements were taken at one and two weeks after intravitreal injection of test compounds."}, "[2]": {"tested_on": "VEGF", "assay": "VEGF content in aqueous humor, ET-1 induced ischemia", "assay_type": "in vivo, rabbit", "settings": "ET-1 treated rabbits; 0.5 mg (equivalent)/eye IVT"}, "[3]": {"tested_on": "ophthalmic artery", "assay": "Ocular haemodynamics (Color Doppler Imaging, Pourcelot Resistance Index) in ET-1 induced ischemia", "assay_type": "in vivo, rabbit", "experimental": "Haemodynamic evaluations were performed using an eco-color-doppler DynaView TM II SSD-1700 (Aloka Holding Europe AG, Milan, Italy). All animals underwent Color Doppler Imaging (CDI) investigation before ET-1 injection (T0), before the start of drug instillation (T2) and at the end of the drug treatment (T6). Special attention was devoted to the evaluation of ophthalmic and ciliary artery circulation. Blood flow velocities were measured for each vessel and the Pourcelot Resistance Index (RI) was calculated (Galassi F. et al., Acta Opht. Scand Suppl. (2000) 37-38)."}, "[4]": {"tested_on": "IL-6", "assay": "IL-6 content in aqueous humor (ELISA), ET-1 induced ischemia", "assay_type": "in vivo, rabbit", "settings": "ET-1 treated rabbits; 0.5 mg (equivalent)/eye IVT", "experimental": "(§1) Aqueous humor samples were withdrawn from both anterior and posterior chamber fluids of each eye before ET-1 administration (T0), before the administration of Compound (1) or fluorocinolone acetonide (T2), and at the end of treatments (T6). The same volume of saline were reintroduced every time. The aqueous humor samples were immediately frozen at −80° C. until use.\n(§2) Tumor necrosis factor (TNFα) and interleukin 6 (IL-6) were determined in aqueous humor with a commercial kit using an ELISA method (Amersham Pharmacia Biotech). The minimum detectable concentrations were 0.10 pg/ml for IL-6 and TNFα. The interassay coefficient of variation was 0.7% for all assays."}, "[5]": {"tested_on": "retinal tissue", "assay": "Retina protection: morphological analysis, ET-1 induced ischemia", "assay_type": "in vivo, rabbit", "settings": "long term ET-1 treatment; 0.5 mg (equivalent)/eye IVT", "experimental": "The eyes of each animal was enucleated, cornea and crystalline were removed and the eyes was paraformaldehyde-fixed. Then samples were dehydrated with increasing alcohol concentration (50°-75°-95°-100°). After 95° alcohol treatment, the eyes were divided into two parts following a longitudinal plain from cornea to insertion of optical nerve. Thus the samples were paraffin-embedded. Section 8 μm thick were stained with Haematoxylin-Eosin. Microscopical fields were registered by digitizing camera applied a light microscope with a 20× and 40× objective. On the digitized images was performed a morphological analysis of retinal tissue."}, "[6]": {"tested_on": "TNFα", "assay": "TNFα content in aqueous humor (ELISA), ET-1 induced ischemia", "assay_type": "in vivo, rabbit", "settings": "ET-1 treated rabbits; 0.5 mg (equivalent)/eye IVT", "experimental": "as §1, §2"}, "[7]": {"tested_on": "isolated rabbit thoracic aorta preparations", "assay": "Assay on vascular tone (vasorelaxation of methoxamine-precontracted aortic rings)", "settings": "for EC50: Oryctolagus cuniculus, read-out: EC50 (concentration producing 50% of the maximum relaxation)", "experimental": "The ability of the compounds of the invention to induce vasorelaxation in comparison to precursor compounds was tested in vitro in isolated rabbit thoracic aorta preparations (Wanstall J. C. et al., Br. J. Pharmacol., 134:463-472, 2001). Male New Zealand rabbits (1,8-2 Kg) were used. The animals were anaesthetized with sodium thiopental (50 mg/kg, iv), sacrificed by exsanguinations and then the thorax was opened and the aorta dissected. The aortas were placed immediately in Krebs-HEPES buffer (pH 7.4; composition mM: NaCl 130.0, Kcl 3.7, […] 14.9, KH2PO4 1.2, MgSO4.7H2O 1.2, Glucose 11.0, HEPES 10.0, CaCl2.2H2O 1.6) and cut into ring segments (4-5 mm in length). Each ring was placed in a 5 ml tissue bath filled with Krebs-HEPES buffer (37° C.) aerated with 95% O2 and 5% CO2 and was then attached to a force transducer (Grass FT03), connected to a BIOPAC MP150 System for measurement of the isometric tension^2. The preparations were allowed to equilibrate for 1 h at a resting tension of 2 g with changes of the buffer every 15 minutes and then stimulated by exposure to 90 mM KCl (3 times) with intervening washings. After equilibration, the rings were precontracted submaximally with methoxamine (3 μM) and, when the contraction reach a steady state a cumulative concentration-response curve to the test compounds was obtained. The time intervals between doses were based on the time needed to reach a full a steady state response.\nResponses to test compounds were expressed as a percentage of residual contraction and plotted against concentration of test compound. EC50 values (where EC50 is the concentration producing 50% of the maximum relaxation to the test compound) were interpolated from these plots."}, "[8]": {"tested_on": "VEGF-induced leakage rat model", "assay": "VEGF-induced retinal vascular leakage rat model (Evans blue)", "assay_type": "in vivo", "settings": "VEGF 100 ng/eye", "experimental": "Pupils were dilated with 1% topical cyclopentolate hydrochloride to see the needle to guide the intravitreal injection. Recombinant rat vascular endothelial growth factor (VEGF; 100 ng/eye) or VEGF at 100 ng/eye plus test compounds were prepared in 0.5% carboxymethyl cellulose (CMC) in sterile saline and was injected into the vitreous with a 30-gauge needle (Xu, Q., et al. Invest. Ophthalmol. Vis. Sci., 42:789-794, 2001). The compounds of the invention were compared to corresponding steroid cores at equimolar doses. […] Control animals received vehicle. Compound (18) was similarly dosed alongside triamcinolone acetonide for comparison.\nRetinal vascular leakage was measured as described previously (Xu, Q., et al. Invest. Ophthalmol. Vis. Sci., 42:789-794, 2001). After about 18 hours post injection of test compounds, rats were anesthetized with ketamine (80 mg/kg) and xylazine (4 mg/kg) IP. Then 45 mg/kg Evans blue (EB) was injected into the jugular vein. The dye was allowed to circulate for 2 hours. The chest cavity was opened and rats then perfused with 1% formalin in 0.5 M citrate buffer (pH 3.5, 37° C.) through the left ventricle. Retinas were carefully dissected from enucleated eyes, placed in pre-weighed Eppendorf tubes, dried in speed vacuum overnight and dry weights recorded. Evans blue was extracted by incubating each retina in 120 μl formamide for 18 hours at 70° C., centrifuged for 2 hours at 6000 rpm. Absorbance of 60 μl of extract was measured at 620 nm and background absorbance was determined at 740 nm. Net absorbance was calculated by subtracting the background 740 nm from that at 620 nm. Measurement of a standard curve of Evans blue in formamide was also done and Evans blue leakage expressed as μl/g/h was calculated as shown below: [EB(ng/ml)×120 (μl)×1000]/[dry weight retina (mg)×circulation time (h)×plasma EB(ng/ml)×100]"}, "[9]": {"settings": "rabbit aortic rings precontracted with methoxamine 3 μM"}}, "note": "Read-outs that look alike come from different tables or passages of the source.", "data": [{"smiles": "CCCCOC(=O)c1ccc(OC(=O)OCC(=O)C23OC(C)(C)OC2CC2C4CC(F)C5=CC(=O)C=CC5(C)C4(F)C(O)CC23C)c(OC)c1", "note": "[des-nitro analog of compound (1), Butyl 4-((2-((6S,9R,10S,11S,13S,16R,17S)-6,9-difluoro-11-hydroxy-16,17-16,17-(1-methylethylidenebis(oxy))-10,13-dimethyl-3-oxo-6,7,8,9,10,11,12,13,14,15,16,17-dodecahydro-3H-cyclopenta[a]phenanthren-17-yl)-2-oxoethoxy)carbonyloxy)-3-methoxybenzoate]", "values": [{"measurement": "IOP compared to compound (1) at 42.4 μg/eye (FIG. 4)", "setting": "[1]", "value": "increase in IOP"}]}, {"smiles": "COc1cc(C(=O)OCCCCO[N+](=O)[O-])ccc1OC(=O)OCC(=O)[C@@]12OC(C)(C)O[C@@H]1CC1C3C[C@H](F)C4=CC(=O)C=C[C@]4(C)[C@@]3(F)[C@@H](O)C[C@@]12C", "note": "(stereo partly drawn) [Compound (1), 4-(nitrooxy)butyl 4-((2-((6S,9R,10S,11S,13S,16R,17S)-6,9-difluoro-11-hydroxy-16,17-16,17-(1-methylethylidenebis(oxy))-10,13-dimethyl-3-oxo-6,7,8,9,10,11,12,13,14,15,16,17-dodecahydro-3H-cyclopenta[a]phenanthren-17-yl)-2-oxoethoxy)carbonyloxy)-3-methoxybenzoate]", "values": [{"measurement": "VEGF content in aqueous humor", "setting": "[2]", "value": "105.79 ± 1.98", "unit": "pg/mL"}, {"measurement": "Resistence Index", "setting": "[3]; After 2 weeks (before drug instillation, T2)", "value": "0.43 ± 0.08"}, {"measurement": "Resistence Index", "setting": "[3]; After 6 weeks (end of drug treatment), 0.5 mg (equivalent)/eye IVT", "value": "0.41 ± 0.03"}, {"measurement": "Resistence Index", "setting": "[3]; Basal", "value": "0.43 ± 0.06"}, {"measurement": "IL6 content in aqueous humor", "setting": "[4]", "value": "15.70 ± 1.73", "unit": "pg/mL"}, {"measurement": "ET-1 induced morphological changes of retinal tissue", "setting": "[5]", "value": "not equally present"}, {"measurement": "TNFα content in aqueous humor", "setting": "[6]", "value": "18.93 ± 0.98", "unit": "pg/mL"}, {"measurement": "EC50", "setting": "[7]", "value": 2200, "unit": "nM"}, {"measurement": "inhibition of VEGF-induced leakage", "setting": "[8]; 42.4 μg/eye intravitreal (equimolar to 25 μg/eye FC), 18 hours after injection", "value": 77.1, "unit": "%"}]}, {"smiles": "CC1(C)O[C@@H]2CC3C4CCC5=CC(=O)C=C[C@]5(C)[C@@]4(F)[C@@H](O)C[C@]3(C)[C@]2(C(=O)COC(=O)Oc2cc(C(=O)OCCCCO[N+](=O)[O-])cc(O)c2O)O1", "note": "(stereo partly drawn) [Compound (10), 4-(nitrooxy)butyl 3-((2-((9R,10S,11S,13S,16R,17S)-9-fluoro-11-hydroxy-16,17-((1-methylethylidene)bis(oxy))-10,13-dimethyl-3-oxo-6,7,8,9,10,11,12,13,14,15,16,17-dodecahydro-3H-cyclopenta[a]phenanthren-17-yl)-2-oxoethoxy)carbonyloxy)-4,5-dihydroxybenzoate]", "values": [{"measurement": "EC50", "setting": "[7]; [9]", "value": "2350 ± 980", "unit": "nM"}]}, {"smiles": "COc1cc(C(=O)OCCCCC(CO[N+](=O)[O-])O[N+](=O)[O-])ccc1OC(=O)OCC(=O)[C@@]12OC(C)(C)O[C@@H]1CC1C3C[C@H](F)C4=CC(=O)C=C[C@]4(C)[C@@]3(F)[C@@H](O)C[C@@]12C", "note": "(stereo partly drawn) [Compound (3), 5,6-bis(nitrooxy)hexyl 4-((2-((6S,9R,10S,11S,13S,16R,17S)-6,9-difluoro-11-hydroxy-16,17-((1-methylethylidene)bis(oxy))-10,13-dimethyl-3-oxo-6,7,8,9,10,11,12,13,14,15,16,17-dodecahydro-3H-cyclopenta[a]phenanthren-17-yl)-2-oxoethoxy)carbonyloxy)-3-methoxybenzoate]", "values": [{"measurement": "EC50", "setting": "[7]; [9]", "value": "210 ± 70", "unit": "nM"}]}, {"smiles": "CC1(C)O[C@@H]2C[C@H]3[C@@H]4CCC5=CC(=O)C=C[C@]5(C)[C@@]4(F)[C@@H](O)C[C@]3(C)[C@]2(C(=O)CO)O1", "note": "[TAAC, Triamcinolone acetonide]", "values": [{"measurement": "EC50 (concentration producing 50% of the maximum relaxation)", "setting": "[7]; [9]", "value": "no effect"}, {"measurement": "reduction of VEGF-induced leakage", "setting": "[8]; 10 μg/eye intravitreal", "value": 67.5, "unit": "%"}]}, {"smiles": "COc1cc(C(=O)OCCOCCOCCO[N+](=O)[O-])ccc1OC(=O)OCC(=O)[C@@]12OC(C)(C)O[C@@H]1CC1C3C[C@H](F)C4=CC(=O)C=C[C@]4(C)[C@@]3(F)[C@@H](O)C[C@@]12C", "note": "(stereo partly drawn) [Compound (5), 2-(2-(2-(nitrooxy)ethoxy)ethoxy)ethyl 4-((2-((6S,9R,10S,11S,13S,16R,17S)-6,9-difluoro-11-hydroxy-16,17-((1-methylethylidene)bis(oxy))-10,13-dimethyl-3-oxo-6,7,8,9,10,11,12,13,14,15,16,17-dodecahydro-3H-cyclopenta[a]phenanthren-17-yl)-2-oxoethoxy)carbonyloxy)-3-methoxybenzoate]", "values": [{"measurement": "EC50", "setting": "[7]; [9]", "value": "830 ± 250", "unit": "nM"}]}, {"smiles": "CC1(C)O[C@@H]2CC3C4C[C@H](F)C5=CC(=O)C=C[C@]5(C)[C@@]4(F)[C@@H](O)C[C@]3(C)[C@]2(C(=O)COC(=O)Oc2cc(C(=O)OCCCCO[N+](=O)[O-])cc(O)c2O)O1", "note": "(stereo partly drawn) [Compound (6), 4-(nitrooxy)butyl 3-((2-((6S,9R,10S,11S,13S,16R,17S)-6,9-difluoro-11-hydroxy-16,17-((1-methylethylidene)bis(oxy))-10,13-dimethyl-3-oxo-6,7,8,9,10,11,12,13,14,15,16,17-dodecahydro-3H-cyclopenta[a]phenanthren-17-yl)-2-oxoethoxy)carbonyloxy)-4,5-dihydroxybenzoate]", "values": [{"measurement": "EC50", "setting": "[7]; [9]", "value": "1440 ± 410", "unit": "nM"}]}, {"smiles": "COc1cc(C(=O)OCCCCO[N+](=O)[O-])ccc1OC(=O)OCC(=O)[C@@]12OC(C)(C)O[C@@H]1CC1C3CCC4=CC(=O)C=C[C@]4(C)[C@@]3(F)[C@@H](O)C[C@@]12C", "note": "(stereo partly drawn) [Compound (18), 4-(nitrooxy)butyl 4-((2-((9R,10S,11S,13S,16R,17S)-9-fluoro-11-hydroxy-16,17-(1-methylethylidenebis(oxy))-10,13-dimethyl-3-oxo-6,7,8,9,10,11,12,13,14,15,16,17-dodecahydro-3H-cyclopenta[a]phenanthren-17-yl)-2-oxoethoxy)carbonyloxy)-3-methoxybenzoate]", "values": [{"measurement": "EC50", "setting": "[7]; [9]", "value": 1560, "unit": "nM"}, {"measurement": "reduction of VEGF-induced leakage", "setting": "[8]; dose equivalent to 10 μg/eye triamcinolone acetonide, intravitreal", "value": 54.3, "unit": "%"}]}]}
